Laboratory results: patent US8637512B2, “Formulations and method of treatment” (Glaxo Group Limited, priority 2002, dated 2014)

Assays:
[1] = Regional absorption study in the gastrointestinal tract; type: in vivo
From the text: Until recently, it was not known where, in the gastrointestinal tract, lamotrigine is absorbed. In carrying out a regional absorption study it has recently been discovered that the extent of absorption of lamotrigine is consistent when the drug is delivered to any point in the gastrointestinal tract between the stomach and the ascending colon. The extent of absorption is also equivalent whether the drug is delivered as a solid or as a solution.

[2] = cited from earlier work
[3] = stomach versus lower regions of the gastrointestinal tract; cited from earlier work

Q: Which results are given for Nc1nnc(-c2cccc(Cl)c2Cl)c(N)n1 [Lamotrigine, 3,5-diamino-6-(2,3-dichlorophenyl)-1,2,4-triazine]?
A: extent of absorption, solid versus solution ([1]; drug delivered as a solid or as a solution): equivalent; extent of absorption by site of delivery ([1]; drug delivered to any point in the gastrointestinal tract between the stomach and the ascending colon): consistent; absorption after oral administration [2]: rapidly and completely absorbed; absolute bioavailability ([2]; oral administration): about 98%; effect of food on absolute bioavailability ([2]; oral administration): not affected by food; first pass metabolism ([2]; oral administration): negligible; solubility in the stomach compared to lower regions of the gastrointestinal tract [3]: higher
